Source: patent publication US20240423888A1, “COSMETIC AND/OR DERMATOLOGICAL COMPOSITION COMPRISING AT LEAST ONE MEROCYANINE AND AT LEAST ASCORBIC ACID AND/OR A DERIVATIVE THEREOF” (L'OREAL, priority 2021, published 2024)

System: normal human dermal fibroblasts (NHDF)
Assay: Procollagen I assay (ELISA) in culture medium of normal human dermal fibroblasts exposed to UVA, formulas spread on PMMA plates placed over the cells
Assay type: cell-based
Details: for Mean procollagen 1 (normalized by Cyquant signal and relative to the unexposed Control): 48 hours after last exposure
Protocol: The efficacy of a combination in accordance with the invention and outside the invention is tested by assaying procollagen 1 in a culture medium of normal human dermal fibroblasts exposed to UVA.
• Normal human dermal fibroblasts (NHDF) obtained from a mammary plasty. • Culture: 37° C., 5% CO2. • Culture medium and test medium: MEM (Gibco 21090-022) containing 10% foetal calf serum (FCS) (Gibco 10270-098), 2 mM L-glutamine (Gibco 25030-024), 1 mM sodium pyruvate (Gibco 11360-039), 1× non-essential amino acids (Gibco 11140-035), 250 ng/ml amphotericin B (Gibco 15290-018) and penicillin/streptomycin 20 U/20 […].
The normal human dermal fibroblasts were seeded in complete MEM medium and incubated for 72 h at 37° C. and 5% CO2.
The cells are then exposed for 3 consecutive days to a dose of 25 J/cm^2 of total UVA using an Oriel solar simulator fitted with a WG335 filter. Depending on the conditions, a PMMA plate to which the formula comprising the screening agents according to the invention or outside the invention or the Placebo formula is applied is placed over the cells during exposure. After each exposure, the cells are treated or not with ascorbic acid (10 μM) diluted in the culture medium. The cells are then incubated at 37° C., 5% CO2. 48 hours after the last exposure, a cell viability test (XTT Roche cat. 11465015001) is performed, and the number of cells in each well is evaluated by means of a Cyquant assay (Molecular Probes C7026). The media are collected and a procollagen I assay is performed by ELISA (Abcam ab210966). Each experimental condition is performed in duplicate or triplicate and at least three independent experiments are performed.

[1] = 25 J/cm^2 total UVA on 3 consecutive days, formula 1.3 mg/cm^2 on PMMA plate over the cells, ascorbic acid 10 μM where given

## O=C1O[C@H]([C@@H](O)CO)C(O)=C1O [VitC, ascorbic acid]
0 J/cm^2 (unexposed), ascorbic acid 10 μM
  relative % relative to the control 0 J: +260.5%
0 J/cm^2 (unexposed), ascorbic acid 10 μM, unexposed Control = 100
  Mean procollagen 1 (normalized by Cyquant signal and relative to the unexposed Control): 360.5
[1]
  relative % relative to the control 0 J: +29.7%
  Mean procollagen 1 (normalized by Cyquant signal and relative to the unexposed Control): 129.7
Ascorbic acid tested at 10 μM, result in words
  secretion of procollagen 1 by the fibroblasts: significantly increased
Effect of UVA, result in words
  ability of ascorbic acid to induce procollagen 1 secretion: significantly reduced
